In one experiment the test system is rat perfused colon. In words: GLP-1 secretion from rat perfused colon ex vivo. The following applies: forskolin (1 μM), rat perfused colon, vs baseline, p=0.0398. The method, then: Ex vivo rat colon vascular perfusion experiments were performed as previously described (Plaisancié, 1995). Male Sprague-Dawley rats (300 g) were purchased from Charles River and fed ad libitum with Purina Lab Chow #5001 (WF Fisher and Son Inc Sommerville, N.J.). Rats were decapitated and the abdomen was opened with a midline incision. […] The arterial vascular perfusion started immediately with an oxygenated Krebs-Henseleit buffer containing-solution at a rate of 2 mL/minute [solution: Krebs-Henseleit buffer (25.0 mM NaHCO3; 118 mM NaCl; 4.7 mM KCl; 1.2 mM MgSO4; 1.2 mM KH2PO4; 2.5 mM CaCl2) with 3% BSA, 5 mM glucose, MEM essential and nonessential amino acids (pH 7.4)]. The colonal lumen was perfused at the rate of 0.5 mL/minute. The remaining colon and small intestine were removed after the ligation of their respective supplying vessels. After the colon preparation was transferred to a 37° C. tissue bath, the portal effluent was collected as 5 minute fractions. The fraction aliquots were frozen at −20° C. for subsequent determinations of GLP-1. EDN3 97-140 was dissolved at 200 nM in vascular perfusion solution and perfused into the artery after a 30 minute baseline collection. […] The GLP-1 detection assay was carried out by using a commercial kit for active GLP-1 (7-36) amide according to the manufacturer's instructions (Millipore). GLP-1 release data was normalized to % baseline using the average of fractions collected prior to treatment as the baseline value and the peak data following each treatment. The average data across 3 independent experiments was reported comparing EDN3 97-140 versus control (baseline) and forskolin versus control (baseline). Statistical analysis was performed by one sided Satterwaite's test due to unequal variance and the Holm test was applied to account for multiple comparisons.

For the next experiment, the system named is GLUTag cells. The following applies: for GLP-1 secretion from GLUTag cells, result in words: endothelin-3 at highest concentration 10 μM.
Experiment [1] concerns isolated rat aortic rings. The following applies: read-out: EC50, concentration-dependent contractions, n=4-6. The method, then: The thoracic aorta with endothelium intact was isolated from male Wistar rats (300-500 g), cut into 3 mm rings, and placed in tissue baths with oxygenated Krebs-Henseleit buffer containing (in mM): KCl (4.7), CaCl2-2H2O (2.5), MgSO4-7H2O (1.2), KH2PO4 (1.2), D-glucose (10), NaHCO3 (25), NaCl (118). Tissues were placed under a 3 g basal tension and allowed to equilibrate for 1 hour at 37° C.

The target in experiment [2] is T1, human endothelin ETA receptor (human, UniProt P25101 21-427).
T1 construct: whole, on cells; Assayed as membrane homogenates (10 ug protein) of transfected CHO cells; also called endothelin receptor A
T1 sequence (looked up): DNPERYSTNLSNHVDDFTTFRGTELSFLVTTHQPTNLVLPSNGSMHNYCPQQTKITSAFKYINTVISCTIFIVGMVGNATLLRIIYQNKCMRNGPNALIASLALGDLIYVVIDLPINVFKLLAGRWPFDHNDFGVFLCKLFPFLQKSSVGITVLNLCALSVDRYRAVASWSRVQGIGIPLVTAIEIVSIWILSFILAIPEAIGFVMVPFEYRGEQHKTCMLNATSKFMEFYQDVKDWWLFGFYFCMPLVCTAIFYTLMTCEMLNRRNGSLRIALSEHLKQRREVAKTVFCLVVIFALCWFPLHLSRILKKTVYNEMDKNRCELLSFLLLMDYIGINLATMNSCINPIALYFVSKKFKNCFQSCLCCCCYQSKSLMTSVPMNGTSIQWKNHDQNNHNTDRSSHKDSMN
Nature of the experiment: radioligand competition ([125I]endothelin-1) on membranes of CHO cells transfected with human ETA. On the procedure: To evaluate the affinity of EDN3 97-140 for the agonist site of the human endothelin ETA receptor, radioligand binding with CHO cells transfected with the ETA receptor was used. […] Following incubation, the samples are filtered rapidly under vacuum through glass fiber filters (GF/B, Packard) presoaked with 0.1% BSA and rinsed several times with an ice-cold buffer containing 50 mM Tris-HCl and 150 mM NaCl using a 96-sample cell harvester (Unifilter, Packard). Filters were dried and then counted for radioactivity in a scintillation counter (Topcount, Packard) using a scintillation cocktail (Microscint 0, Packard).
For orientation: Loss of bound radioactivity is the signal in a displacement assay; it reports binding, not function.

The target of experiment [3] is T2, human endothelin ETB receptor (human, UniProt P24530 27-442).
T2 construct: whole, on cells; Assayed as membrane homogenates (2.4 ug protein) of transfected CHO cells; also called endothelin receptor B
T2 sequence (looked up): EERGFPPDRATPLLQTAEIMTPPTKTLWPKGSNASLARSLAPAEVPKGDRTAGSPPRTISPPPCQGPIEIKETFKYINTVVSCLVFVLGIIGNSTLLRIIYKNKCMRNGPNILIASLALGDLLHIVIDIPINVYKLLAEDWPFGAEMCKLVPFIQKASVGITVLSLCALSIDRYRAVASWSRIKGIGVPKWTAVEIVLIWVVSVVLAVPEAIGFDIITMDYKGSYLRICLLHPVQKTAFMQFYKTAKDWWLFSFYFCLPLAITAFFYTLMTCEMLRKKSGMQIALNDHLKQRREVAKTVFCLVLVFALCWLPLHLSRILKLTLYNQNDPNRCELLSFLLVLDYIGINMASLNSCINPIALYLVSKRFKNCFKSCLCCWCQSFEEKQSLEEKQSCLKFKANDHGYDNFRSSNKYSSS
In words: radioligand competition ([125I]endothelin-1) on membranes of CHO cells transfected with human ETB. The method, then: To evaluate the affinity of EDN3 97-140 for the agonist site of the human endothelin ETB receptor in transfected CHO cells, radioligand binding was used. […] Following incubation, the samples were filtered rapidly under vacuum through glass fiber filters (GF/B, Packard) presoaked with 0.1% BSA and rinsed several times with an ice-cold buffer containing 50 mM Tris-HCl and 150 mM NaCl using a 96-sample cell harvester (Unifilter, Packard). The filters were dried then counted for radioactivity in a scintillation counter (Topcount, Packard) using a scintillation cocktail (Microscint 0, Packard).

Read-outs that look alike come from different tables or passages of the source. Where a SMILES comes first, the peptide text is derived from it. Bridges are numbered along the chain shown (N, C = ends). Where no end group is shown, it is not given here. A value given as a limit tells only on which side of the number the result lay.

As for `C=C[C@@]1(C)CC(=O)[C@]2(O)[C@@]3(C)[C@@H](O)CCC(C)(C)[C@@H]3[C@H](O)[C@H](OC(C)=O)[C@@]2(C)O1` [forskolin, reference compound], the “stimulation of GLP-1 release, positive control” value in the experiment on rat perfused colon was 1717±350%.

On to “CTCFTYKDKECVYYCHLDIIWINTPEQTVPYGLSNYRESLR-NH2 (disulfide 1-15, 3-11 (inferred)) [EDN3 97-137]”, for which, in the experiment on GLUTag cells, the EC50 stood at 1.72 µM and the “GLP-1 secretion from GLUTag cells, result in words” value (“GLP-1 secretion from GLUTag cells” for short) was “partial loss of activity”. “STSFTYKDKESVYYSHLDIIWINTPEQTVPYGLSNYRESLRGKR-NH2 [EDN3 97-140 C->S mutant]” had an EC50 in the experiment on GLUTag cells of more than 10 µM. Still for that read-out and setting: in the case of “CTAFTYKDKEAVYYCHLDIIWINTPEQTVPYGLSNYRESLRGKR-NH2 (disulfide 1-15) [EDN3 97-140 C99A, C107A]” it was 1.6 µM. Regarding endothelin-1 [reference compound], the EC50 in experiment [1] was 0.0027 ± 0.001 µM.

Consider “YYSHLDIIWINTPEQTVPYGLSNYRESLRGKR-NH2 [EDN3 109-140 C111S]”, for which, in the experiment with GLUTag cells, the EC50 was more than 10 µM. As to FTYKDKESVYY-NH2 [EDN3 100-110], in the experiment with GLUTag cells, the EC50 was more than 10 µM. On to “FTYKDKECVYYCHLDIIWINTPEQTVPYGLSNYRESLRGKR-NH2 (cysteines drawn unpaired) [EDN3 100-140]”, for which, in the experiment with GLUTag cells, the EC50 is more than 10 µM and the “GLP-1 secretion from GLUTag cells” value is “do not measurably stimulate GLP-1 secretion”. “YYAHLDIIAINTPEQTVPYGLSNYRESLRGKR-NH2 [EDN3 109-140 C111A W117A]” yielded an EC50 in the experiment with GLUTag cells of more than 10 µM. On the same count and under the same terms, the result for “ATCFTYKDKECVYYAHLDIIWINTPEQTVPYGLSNYRESLRGKR-NH2 (disulfide 3-11) [EDN3 97-140 C97A, C111A]” reads 2.7 µM; that for `CC[C@H](C)[C@H](NC(=O)[C@H](Cc1c[nH]c2ccccc12)NC(=O)[C@@H](NC(=O)[C@@H](NC(=O)[C@H](CC(=O)O)NC(=O)[C@H](CC(C)C)NC(=O)[C@H](Cc1c[nH]cn1)NC(=O)[C@H](CS)NC(=O)[C@H](Cc1ccc(O)cc1)NC(=O)[C@H](Cc1ccc(O)cc1)NC(=O)[C@@H](NC(=O)[C@H](CS)NC(=O)[C@H](CCC(=O)O)NC(=O)[C@H](CCCCN)NC(=O)[C@H](CC(=O)O)NC(=O)[C@H](CCCCN)NC(=O)[C@@H](N)Cc1ccc(O)cc1)C(C)C)[C@@H](C)CC)[C@@H](C)CC)C(=O)N[C@@H](CC(N)=O)C(=O)N[C@H](C(=O)N1CCC[C@H]1C(=O)N[C@@H](CCC(=O)O)C(=O)N[C@@H](CCC(N)=O)C(N)=O)[C@@H](C)O` [EDN3 102-123] (H-YKDKECVYYCHLDIIWINTPEQ-NH2; N-terminus assumed), more than 10 µM; that for “CTCFTYKDKECVYYCHLDIIWINTPEQTVPYGLSNYRESLRGKR-OH (disulfide 1-15, 3-11 (inferred)) [EDN3 97-140 free acid]”, 2 µM. Take “TCFTYKDKECVYYCHLDIIWINTPEQTVPYGLSNYRESLRGKR-NH2 (cysteines drawn unpaired) [EDN3 98-140]”: in the experiment with GLUTag cells, the EC50 was more than 10 µM and the “GLP-1 secretion from GLUTag cells” value is given as “do not measurably stimulate GLP-1 secretion”.

As to “CTCFTYKDKECVYYCHLDIIFINTPEQTVPYGLSNYRESLRGKR-NH2 (disulfide 1-15, 3-11 (inferred)) [EDN3 97-140 W117F]”, in the experiment on GLUTag cells, the EC50 came out at 0.731 µM and the “GLP-1 secretion from GLUTag cells” value is on record as “does not cause a loss of GLP-1 secretagogue function”. Take “CTCFTYKDKECVYYCHLDIIHINTPEQTVPYGLSNYRESLRGKR-NH2 (disulfide 1-15, 3-11 (inferred)) [EDN3 97-140 W117H]”: in the experiment on GLUTag cells, the EC50 is more than 1 µM. For `CC[C@H](C)[C@H](NC(=O)[C@H](CC(=O)O)NC(=O)[C@H](CC(C)C)NC(=O)[C@H](Cc1c[nH]cn1)NC(=O)[C@@H]1CSSC[C@H](N)C(=O)N[C@@H]([C@@H](C)O)C(=O)N[C@H]2CSSC[C@H](NC(=O)[C@H](CCC(=O)O)NC(=O)[C@H](CCCCN)NC(=O)[C@H](CC(=O)O)NC(=O)[C@H](CCCCN)NC(=O)[C@H](Cc3ccc(O)cc3)NC(=O)[C@H]([C@@H](C)O)NC(=O)[C@H](Cc3ccccc3)NC2=O)C(=O)N[C@@H](C(C)C)C(=O)N[C@@H](Cc2ccc(O)cc2)C(=O)N[C@@H](Cc2ccc(O)cc2)C(=O)N1)C(=O)N[C@H](C(=O)N[C@@H](Cc1c[nH]c2ccccc12)C(=O)O)[C@@H](C)CC` [endothelin-3, reference compound], in the experiment on GLUTag cells, the EC50 was more than 10 µM and the “GLP-1 secretion from GLUTag cells” value is on record as “no effect”. In the experiment on GLUTag cells (listed as Endothelin-3 (EDN3 97-117)), the “GLP-1 secretion from GLUTag cells” value is listed as “not sufficient to elicit a GLP-1 release”. Turning to “INTPEQTVPYGLSNYRESLRGKR-NH2 [EDN3 118-140]”, in the experiment on GLUTag cells, the EC50 is more than 10 µM.

B1: EDN3 97-140 (peptide)
peptide: CTCFTYKDKECVYYCHLDIIWINTPEQTVPYGLSNYRESLRGKR-NH2
modifications: not fully specified; cysteine pairing not given here
notes: also called long endothelin-3; 44 amino acid, C-terminally amidated endothelin-like peptide
Consider B1, for which the binding result in experiment [2] and in experiment [3] was “no binding (tested: up to 3 µM)” throughout.

Source of the values: patent US20130345392A1, “EDN3-LIKE PEPTIDES AND USES THEREOF” (Pfizer Inc, priority 2011, published 2013).
